For data set [1], the system named is bleomycin (BLM) induced unilateral lung fibrosis model in Sprague Dawley (SD) rats. Kind of data set: Bleomycin-induced SD rat unilateral lung fibrosis model for IPF. It is filed as in vivo. The method, then: The purpose of this study was to evaluate the therapeutic effect of FC-4 on bleomycin (BLM) induced unilateral lung fibrosis model in Sprague Dawley (SD) rats. Male SD rats (n=50) were randomly divided into the following groups: Sham group (n=10), Model group (n=10), FC-4 administered at 10 mg/kg/day group (n=10), FC-4 administered at 30 mg/kg/day group (n=10), and FC-4 administered at 100 mg/kg/day group (n=10). All test drugs were delivered orally starting from day 8 of modeling for 14 days. Saline solution was taken for sham and model groups once a day, and FC-4 twice a day for drug treatment groups. Rats were anesthetized and the trachea was exposed. Saline was administrated via direct intra-trachea injection in the sham group, and the other groups' animals received a BLM injection at a dose of 3 mg/kg in volume of 1.0 ml/kg. All animals were processed using a non invasive lung function test with EMMS Whole Body Plethysmography system at pre-modeling, and at days 3, 7, 11, 14, 18 and 21 of modeling. One day after the last drug delivery, the left lung of all animals was perfused with 10% formalin, and processed for pathology analysis.
Animals: Species and quality level: SD rats, SPF grade. Gender and number: male, 93. Purchasing body weight range: 260-280 g. […]

Data set [2] addresses T1, recombinant human MMP-12 catalytic domain (Homo sapiens, UniProt P39900).
T1 construct: recombinant human MMP-12 catalytic domain; purchased Enzo BM1L-SE138
Put plainly: MMP-12 inhibitory assay (fluorogenic MMP substrate cleavage). Type of data set: biochemical. As to conditions: readout at 30 minutes. The method, then:
The inhibitory effect of compounds on the rate of cleaving fluorogenic MMP substrate (Enzo, BML-P128) by recombinant human MMP-12 catalytic domain (Enzo, BM1L-SE138) was carried out by methods known in the art. Briefly, to each well of a 96-well black opaque plate, all the reagents were sequentially added by pipetting, and the final reaction contained 4 nM of recombinant human MMP-12 catalytic domain, 4 μM of fluorogenic MMP substrate, and various concentrations (0.15 nM to 10,000 nM) of tested compound dilutions in HEPES buffer (pH 7.5) containing 10 mM of CaCl2), 0.01% Brij® 35 (polyoxyethylene (23) lauryl ether), and 0.1 mg/ml of BSA.
The enzyme and compounds were pre-incubated on a shaker to mix in wells. After an hour of mixing, fluorogenic substrate was added to each well. Reaction without enzyme was used as a blank control in the plate. The plate was then fed into a plate reader to measure fluorescence intensity at Excitation/Emission wavelengths of 340 nm/440 nm every 10 mins for at least 1 hour at 37° C. The IC50 of each compound in MMP-12 inhibition was determined by using a readout obtained at time point 30 minutes.

Each structure is given as a SMILES string.

T1 sequence (P39900 106-263 limits assumed): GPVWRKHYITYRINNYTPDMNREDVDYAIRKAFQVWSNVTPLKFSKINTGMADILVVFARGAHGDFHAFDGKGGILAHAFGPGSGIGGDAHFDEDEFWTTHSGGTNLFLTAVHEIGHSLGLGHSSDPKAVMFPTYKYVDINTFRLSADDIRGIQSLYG

Turning to `Cc1cc(COc2ccc(Sc3ccoc3C3NC(=O)NC3=O)cc2)ccn1` (stereo not drawn) [FC-4], in data set [1] (all drug treatment groups), the “Share of the Ashcraft score that was score 3” value was ~80%. The “Physical and behavior abnormality” value in data set [1] (all tested rats during the experiment) is “no obviously physical and behavior abnormality change”.

For the molecule `Cc1cccc(COc2ccc(Sc3ccoc3C3NC(=O)NC3=O)cc2)[n+]1[O-]` (stereo not drawn) [FC-5], in data set [2], the IC50 was > 1000 nM.

For `Cc1cc(CCc2ccc(Sc3ccoc3C3NC(=O)NC3=O)cc2)ccn1` (stereo not drawn) [FC-30], the IC50 in data set [2] lay within 10 to 100 nM.

Turning to `Cc1cc(CNc2ccc(Sc3ccoc3C3NC(=O)NC3=O)cc2)ccn1` (stereo not drawn) [FC-31], the IC50 in data set [2] was in the range of 10 to 100 nM.

For the molecule `Cc1cc(NCc2ccc(Sc3ccoc3C3NC(=O)NC3=O)cc2)ccn1` (stereo not drawn) [FC-34], the IC50 in data set [2] fell in the range of 100 to 1000 nM.

A word on the IC50: it is the concentration needed to halve the response being measured.
